# Results published in the kinase profiling compilation of Christmann-Franck et al. (2016).
# Columns and labels:
# Assay in all cases: KINOMEscan competition binding
# Details in all cases: compound 10.0 µM
# ACVR2A (human) = ACVR2A (human) (UniProt P27037)
# AURKA (human) = AURKA (human) (UniProt O14965)
# CAMK2B (human) = CAMK2B (human) (UniProt Q13554)
# CDC2L2 (human) = CDC2L2 (human) (UniProt Q9UQ88)
# CDK9 (human) = CDK9 (human) (UniProt P50750)
# CHEK2 (human) = CHEK2 (human) (UniProt O96017)
# CLK4 (human) = CLK4 (human) (UniProt Q9HAZ1)
# DDR1 (human) = DDR1 (human) (UniProt Q08345)
# DYRK1B (human) = DYRK1B (human) (UniProt Q9Y463)
# EPHA8 (human) = EPHA8 (human) (UniProt P29322)
# FGFR2 (human) = FGFR2 (human) (UniProt P21802)
# Chain of FGFR2 (human) (P21802 whole entry, looked up): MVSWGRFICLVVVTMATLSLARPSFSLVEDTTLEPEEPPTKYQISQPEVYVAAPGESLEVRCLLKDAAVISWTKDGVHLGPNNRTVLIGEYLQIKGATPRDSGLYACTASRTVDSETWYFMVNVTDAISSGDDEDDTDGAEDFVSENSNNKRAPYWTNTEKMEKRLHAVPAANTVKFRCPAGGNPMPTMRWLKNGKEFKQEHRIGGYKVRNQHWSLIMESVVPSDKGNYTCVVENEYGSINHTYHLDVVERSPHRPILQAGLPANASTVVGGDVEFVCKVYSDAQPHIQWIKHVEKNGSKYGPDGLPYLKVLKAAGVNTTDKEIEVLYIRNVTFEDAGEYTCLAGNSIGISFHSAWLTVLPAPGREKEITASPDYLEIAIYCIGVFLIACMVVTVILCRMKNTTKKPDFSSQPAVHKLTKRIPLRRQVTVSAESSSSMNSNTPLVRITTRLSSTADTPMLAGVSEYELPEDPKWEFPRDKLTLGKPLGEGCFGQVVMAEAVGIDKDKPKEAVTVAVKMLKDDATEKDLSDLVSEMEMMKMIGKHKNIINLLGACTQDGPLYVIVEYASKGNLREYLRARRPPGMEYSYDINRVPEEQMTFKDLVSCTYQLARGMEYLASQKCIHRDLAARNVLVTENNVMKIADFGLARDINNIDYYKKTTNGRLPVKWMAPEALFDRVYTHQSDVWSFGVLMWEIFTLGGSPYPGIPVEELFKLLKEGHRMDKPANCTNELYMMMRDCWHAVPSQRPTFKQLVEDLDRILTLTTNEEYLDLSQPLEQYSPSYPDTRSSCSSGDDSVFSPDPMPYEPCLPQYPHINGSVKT
# FGR (human) = FGR (human) (UniProt P09769)
# GSK3A (human) = GSK3A (human) (UniProt P49840)
# [1] = test system: KIT (human), P10721 [V559D/V654A]
# LATS1 (human) = LATS1 (human) (UniProt O95835)
# Chain of LATS1 (human) (O95835 whole entry, looked up): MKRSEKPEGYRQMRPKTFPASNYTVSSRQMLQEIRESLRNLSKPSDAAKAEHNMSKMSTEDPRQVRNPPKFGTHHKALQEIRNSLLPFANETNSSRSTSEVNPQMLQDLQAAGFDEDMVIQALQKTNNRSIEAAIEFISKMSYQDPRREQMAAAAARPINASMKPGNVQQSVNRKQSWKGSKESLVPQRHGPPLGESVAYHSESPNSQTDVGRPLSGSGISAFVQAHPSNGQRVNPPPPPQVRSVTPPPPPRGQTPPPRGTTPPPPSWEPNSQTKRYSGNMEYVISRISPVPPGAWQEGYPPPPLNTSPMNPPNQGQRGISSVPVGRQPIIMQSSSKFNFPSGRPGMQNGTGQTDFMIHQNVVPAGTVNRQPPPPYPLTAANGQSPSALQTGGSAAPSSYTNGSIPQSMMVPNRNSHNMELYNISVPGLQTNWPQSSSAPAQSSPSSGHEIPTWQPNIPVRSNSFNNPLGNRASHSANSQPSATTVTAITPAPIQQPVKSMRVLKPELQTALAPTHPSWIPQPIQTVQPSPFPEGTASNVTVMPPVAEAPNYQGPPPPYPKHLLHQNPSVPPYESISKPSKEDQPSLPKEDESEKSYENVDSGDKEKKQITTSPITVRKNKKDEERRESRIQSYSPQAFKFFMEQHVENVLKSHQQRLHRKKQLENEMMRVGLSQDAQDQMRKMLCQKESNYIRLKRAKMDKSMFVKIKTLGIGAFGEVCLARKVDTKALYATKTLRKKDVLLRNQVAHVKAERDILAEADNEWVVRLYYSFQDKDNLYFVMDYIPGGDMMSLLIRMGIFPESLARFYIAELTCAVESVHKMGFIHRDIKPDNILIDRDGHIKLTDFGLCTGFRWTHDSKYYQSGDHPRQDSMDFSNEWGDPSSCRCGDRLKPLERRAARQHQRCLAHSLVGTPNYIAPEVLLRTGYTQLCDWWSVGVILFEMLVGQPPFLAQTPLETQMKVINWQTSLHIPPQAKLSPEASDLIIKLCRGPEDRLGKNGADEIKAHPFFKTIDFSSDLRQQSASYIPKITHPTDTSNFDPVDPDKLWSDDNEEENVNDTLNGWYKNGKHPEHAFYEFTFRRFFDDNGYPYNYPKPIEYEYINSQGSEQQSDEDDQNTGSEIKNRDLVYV
# LTK (human) = LTK (human) (UniProt P29376)
# MAP2K3 (human) = MAP2K3 (human) (UniProt P46734)
# MAPK11 (human) = MAPK11 (human) (UniProt Q15759)
# Chain of MAPK11 (human) (Q15759 whole entry, looked up): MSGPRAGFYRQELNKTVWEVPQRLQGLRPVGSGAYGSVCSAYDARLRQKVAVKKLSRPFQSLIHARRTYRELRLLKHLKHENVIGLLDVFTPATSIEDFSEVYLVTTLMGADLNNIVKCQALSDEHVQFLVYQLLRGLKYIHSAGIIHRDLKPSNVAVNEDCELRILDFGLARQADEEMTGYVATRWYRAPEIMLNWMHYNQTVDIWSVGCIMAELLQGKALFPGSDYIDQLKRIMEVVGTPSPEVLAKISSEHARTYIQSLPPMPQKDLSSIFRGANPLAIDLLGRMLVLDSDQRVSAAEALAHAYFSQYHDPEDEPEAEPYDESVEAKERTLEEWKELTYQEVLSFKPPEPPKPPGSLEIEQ
# MAPK15 (human) = MAPK15 (human) (UniProt Q8TD08)
# MERTK (human) = MERTK (human) (UniProt Q12866)
# NEK2 (human) = NEK2 (human) (UniProt P51955)
# Chain of NEK2 (human) (P51955 whole entry, looked up): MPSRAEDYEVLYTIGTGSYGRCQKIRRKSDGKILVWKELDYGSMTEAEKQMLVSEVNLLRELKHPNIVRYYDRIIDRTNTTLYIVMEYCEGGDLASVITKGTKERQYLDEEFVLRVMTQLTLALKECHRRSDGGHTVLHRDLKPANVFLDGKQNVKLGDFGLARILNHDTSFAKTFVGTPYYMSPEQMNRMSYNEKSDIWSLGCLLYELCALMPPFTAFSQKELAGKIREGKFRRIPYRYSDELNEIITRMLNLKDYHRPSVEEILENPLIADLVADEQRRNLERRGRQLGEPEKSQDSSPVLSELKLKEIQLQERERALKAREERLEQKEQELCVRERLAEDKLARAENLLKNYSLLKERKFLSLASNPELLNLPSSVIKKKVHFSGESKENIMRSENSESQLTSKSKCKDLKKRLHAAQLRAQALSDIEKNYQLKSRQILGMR
# PDGFRB (human) = PDGFRB (human) (UniProt P09619)
# PIK3CA (human) = PIK3CA (human) (UniProt P42336)
# PIP5K1A (human) = PIP5K1A (human) (UniProt Q99755)
# PLK3 (human) = PLK3 (human) (UniProt Q9H4B4)
# PRKCD (human) = PRKCD (human) (UniProt Q05655)
# RAF1 (human) = RAF1 (human) (UniProt P04049)
# RIOK1 (human) = RIOK1 (human) (UniProt Q9BRS2)
# Chain of RIOK1 (human) (Q9BRS2 whole entry, looked up): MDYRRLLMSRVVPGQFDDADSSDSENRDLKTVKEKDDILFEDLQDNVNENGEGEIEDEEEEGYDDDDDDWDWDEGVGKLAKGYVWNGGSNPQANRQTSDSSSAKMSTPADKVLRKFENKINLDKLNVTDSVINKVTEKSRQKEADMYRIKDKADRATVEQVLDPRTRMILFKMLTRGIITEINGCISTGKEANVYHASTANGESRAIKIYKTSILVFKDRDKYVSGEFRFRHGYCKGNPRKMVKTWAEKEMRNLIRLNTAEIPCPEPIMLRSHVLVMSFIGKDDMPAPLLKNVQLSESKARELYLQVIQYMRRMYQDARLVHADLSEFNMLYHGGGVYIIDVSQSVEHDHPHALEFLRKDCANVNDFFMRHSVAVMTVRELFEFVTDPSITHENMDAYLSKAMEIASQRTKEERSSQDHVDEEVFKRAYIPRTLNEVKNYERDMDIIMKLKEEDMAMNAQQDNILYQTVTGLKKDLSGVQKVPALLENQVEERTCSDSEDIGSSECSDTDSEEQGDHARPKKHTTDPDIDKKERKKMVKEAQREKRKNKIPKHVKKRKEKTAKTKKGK
# SIK2 (human) = SIK2 (human) (UniProt Q9H0K1)
# Chain of SIK2 (human) (Q9H0K1 whole entry, looked up): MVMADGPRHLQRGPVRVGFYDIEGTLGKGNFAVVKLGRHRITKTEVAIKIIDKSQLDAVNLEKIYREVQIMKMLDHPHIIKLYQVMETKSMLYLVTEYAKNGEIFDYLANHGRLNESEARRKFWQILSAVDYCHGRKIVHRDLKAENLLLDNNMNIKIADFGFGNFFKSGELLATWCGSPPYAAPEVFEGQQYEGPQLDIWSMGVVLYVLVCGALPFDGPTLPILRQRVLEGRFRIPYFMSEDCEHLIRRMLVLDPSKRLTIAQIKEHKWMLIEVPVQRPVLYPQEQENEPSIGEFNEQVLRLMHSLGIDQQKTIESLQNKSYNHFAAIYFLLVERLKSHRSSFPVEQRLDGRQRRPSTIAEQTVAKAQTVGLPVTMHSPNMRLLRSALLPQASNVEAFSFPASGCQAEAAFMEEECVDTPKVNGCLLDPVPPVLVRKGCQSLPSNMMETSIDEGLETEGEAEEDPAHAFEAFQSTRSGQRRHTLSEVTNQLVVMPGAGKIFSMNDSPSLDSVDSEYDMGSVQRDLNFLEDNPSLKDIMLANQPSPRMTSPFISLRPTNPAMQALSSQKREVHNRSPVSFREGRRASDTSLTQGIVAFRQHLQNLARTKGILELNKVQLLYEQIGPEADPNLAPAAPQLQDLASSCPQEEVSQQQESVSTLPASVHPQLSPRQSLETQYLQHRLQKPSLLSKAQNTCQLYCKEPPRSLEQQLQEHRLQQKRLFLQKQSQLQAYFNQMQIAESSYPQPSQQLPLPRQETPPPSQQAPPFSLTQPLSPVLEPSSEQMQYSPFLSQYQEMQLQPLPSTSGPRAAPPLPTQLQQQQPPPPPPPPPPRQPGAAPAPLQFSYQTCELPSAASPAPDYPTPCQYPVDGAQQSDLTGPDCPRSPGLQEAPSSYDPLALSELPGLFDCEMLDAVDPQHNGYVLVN
# TGFBR1 (human) = TGFBR1 (human) (UniProt P36897)
# TNNI3K (human) = TNNI3K (human) (UniProt Q59H18)
# TYRO3 (human) = TYRO3 (human) (UniProt Q06418)
# WEE2 (human) = WEE2 (human) (UniProt P0C1S8)
# Chain of CAMK2B (human) (Q13554 whole entry, looked up): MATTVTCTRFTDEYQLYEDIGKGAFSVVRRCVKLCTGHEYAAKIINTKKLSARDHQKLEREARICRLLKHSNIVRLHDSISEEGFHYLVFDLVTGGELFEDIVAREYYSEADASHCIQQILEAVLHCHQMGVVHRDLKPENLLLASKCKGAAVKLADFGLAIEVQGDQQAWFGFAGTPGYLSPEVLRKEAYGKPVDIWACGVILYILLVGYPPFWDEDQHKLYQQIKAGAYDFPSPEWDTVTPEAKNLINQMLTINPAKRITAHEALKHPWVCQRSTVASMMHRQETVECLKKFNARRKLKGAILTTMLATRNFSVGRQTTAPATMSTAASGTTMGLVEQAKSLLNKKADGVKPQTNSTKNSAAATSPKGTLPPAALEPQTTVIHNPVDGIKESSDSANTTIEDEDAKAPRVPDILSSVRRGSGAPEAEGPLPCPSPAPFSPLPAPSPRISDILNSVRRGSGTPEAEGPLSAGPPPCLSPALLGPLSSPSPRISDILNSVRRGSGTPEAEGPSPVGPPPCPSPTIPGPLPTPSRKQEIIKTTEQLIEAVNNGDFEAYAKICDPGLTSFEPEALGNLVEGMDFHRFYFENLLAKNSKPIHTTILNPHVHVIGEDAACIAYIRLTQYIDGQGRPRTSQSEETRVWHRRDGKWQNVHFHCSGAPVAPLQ
Structure (SMILES),"kinase still bound, per cent of control (ACVR2A (human)) [%]","kinase still bound, per cent of control (AURKA (human)) [%]","kinase still bound, per cent of control (CDC2L2 (human)) [%]","kinase still bound, per cent of control (CDK9 (human)) [%]","kinase still bound, per cent of control (CLK4 (human)) [%]","kinase still bound, per cent of control (DDR1 (human)) [%]","kinase still bound, per cent of control (DYRK1B (human)) [%]","kinase still bound, per cent of control (EPHA8 (human)) [%]","kinase still bound, per cent of control (FGR (human)) [%]","kinase still bound, per cent of control (GSK3A (human)) [%]","kinase still bound, per cent of control [1] [%]","kinase still bound, per cent of control (LATS1 (human)) [%]","kinase still bound, per cent of control (LTK (human)) [%]","kinase still bound, per cent of control (MAP2K3 (human)) [%]","kinase still bound, per cent of control (MAPK11 (human)) [%]","kinase still bound, per cent of control (MAPK15 (human)) [%]","kinase still bound, per cent of control (MERTK (human)) [%]","kinase still bound, per cent of control (NEK2 (human)) [%]","kinase still bound, per cent of control (PDGFRB (human)) [%]","kinase still bound, per cent of control (PIK3CA (human)) [%]",further results
C=CC(=O)Nc1ccc(CN(C(=O)Nc2c(Cl)c(OC)cc(OC)c2Cl)c2cc(Nc3ccc(N4CCN(C)CC4)cc3)ncn2)cc1,100,100,100,100,100,0,100,100,7,100,100,100,27,100,100,100,100,100,0,100,"kinase still bound, per cent of control (CAMK2B (human)): 100%; kinase still bound, per cent of control (CHEK2 (human)): 100%; kinase still bound, per cent of control (FGFR2 (human)): 1.9%; kinase still bound, per cent of control (PIP5K1A (human)): 100%; kinase still bound, per cent of control (PLK3 (human)): 100%; kinase still bound, per cent of control (PRKCD (human)): 100%; kinase still bound, per cent of control (RAF1 (human)): 100%; kinase still bound, per cent of control (RIOK1 (human)): 100%; kinase still bound, per cent of control (SIK2 (human)): 100%; kinase still bound, per cent of control (TGFBR1 (human)): 100%; kinase still bound, per cent of control (TNNI3K (human)): 100%; kinase still bound, per cent of control (TYRO3 (human)): 100%; kinase still bound, per cent of control (WEE2 (human)): 100%"
Cc1n[nH]c2ccc(-c3cncc(OC[C@@H](N)Cc4c[nH]c5ccccc45)c3)cc12,100,100,100,1.9,2.6,100,0,100,100,1,100,3.8,100,7.1,100,0,33,100,28,100,"kinase still bound, per cent of control (CHEK2 (human)): 100%; kinase still bound, per cent of control (FGFR2 (human)): 100%; kinase still bound, per cent of control (PIP5K1A (human)): 9.4%; kinase still bound, per cent of control (PLK3 (human)): 100%; kinase still bound, per cent of control (PRKCD (human)): 0.85%; kinase still bound, per cent of control (RAF1 (human)): 100%; kinase still bound, per cent of control (RIOK1 (human)): 2.8%; kinase still bound, per cent of control (SIK2 (human)): 100%; kinase still bound, per cent of control (TGFBR1 (human)): 100%; kinase still bound, per cent of control (TNNI3K (human)): 100%; kinase still bound, per cent of control (TYRO3 (human)): 100%; kinase still bound, per cent of control (WEE2 (human)): 100%"
CCN(CC)CCCCNc1ncc2cc(-c3cc(OC)cc(OC)c3)c(NC(=O)NC(C)(C)C)nc2n1,100,100,100,100,100,1.1,100,100,100,100,100,100,100,100,100,100,100,100,38,20,"kinase still bound, per cent of control (CAMK2B (human)): 100%; kinase still bound, per cent of control (PIP5K1A (human)): 100%; kinase still bound, per cent of control (PLK3 (human)): 100%; kinase still bound, per cent of control (PRKCD (human)): 100%; kinase still bound, per cent of control (RAF1 (human)): 100%; kinase still bound, per cent of control (RIOK1 (human)): 100%; kinase still bound, per cent of control (SIK2 (human)): 100%; kinase still bound, per cent of control (TGFBR1 (human)): 100%; kinase still bound, per cent of control (TNNI3K (human)): 100%; kinase still bound, per cent of control (TYRO3 (human)): 100%"
CNC(=O)c1ccc(Nc2cc(Nc3ccccc3S(=O)(=O)C(C)C)c3cc[nH]c3n2)nc1,100,2.7,100,100,0.35,100,8.8,100,5,18,100,100,0,10,100,8,0.25,100,8.4,100,"kinase still bound, per cent of control (CAMK2B (human)): 100%; kinase still bound, per cent of control (CHEK2 (human)): 100%; kinase still bound, per cent of control (FGFR2 (human)): 25%; kinase still bound, per cent of control (PIP5K1A (human)): 4.6%; kinase still bound, per cent of control (PLK3 (human)): 100%; kinase still bound, per cent of control (PRKCD (human)): 15%; kinase still bound, per cent of control (RAF1 (human)): 100%; kinase still bound, per cent of control (RIOK1 (human)): 2%; kinase still bound, per cent of control (SIK2 (human)): 9.8%; kinase still bound, per cent of control (TGFBR1 (human)): 100%; kinase still bound, per cent of control (TNNI3K (human)): 100%; kinase still bound, per cent of control (TYRO3 (human)): 29%; kinase still bound, per cent of control (WEE2 (human)): 100%"
